Measured values as given in ChEMBL document CHEMBL5625223 (Eur J Med Chem, 2023).

Tests used:
[1] = target: 5-hydroxytryptamine receptor 1D (Homo sapiens, UniProt P28221); assay: Binding affinity to 5HT1D receptor (unknown origin) assessed as inhibition constant
[2] = target: T1, 5-hydroxytryptamine receptor 2A (Homo sapiens, UniProt P28223); assay: Displacement of [3H]ketanserin from human 5-HT2A receptor expressed in HEK293 cells at 10 uM incubated for 1 hr; format: cell-based
Adenosine receptor A3 = target: T2, Adenosine receptor A3 (Homo sapiens, UniProt P0DMS8); assay: Displacement of […] from human A3AR expressed in HEK cells assessed as inhibition constant; format: cell-based
T2 sequence (P0DMS8 whole entry): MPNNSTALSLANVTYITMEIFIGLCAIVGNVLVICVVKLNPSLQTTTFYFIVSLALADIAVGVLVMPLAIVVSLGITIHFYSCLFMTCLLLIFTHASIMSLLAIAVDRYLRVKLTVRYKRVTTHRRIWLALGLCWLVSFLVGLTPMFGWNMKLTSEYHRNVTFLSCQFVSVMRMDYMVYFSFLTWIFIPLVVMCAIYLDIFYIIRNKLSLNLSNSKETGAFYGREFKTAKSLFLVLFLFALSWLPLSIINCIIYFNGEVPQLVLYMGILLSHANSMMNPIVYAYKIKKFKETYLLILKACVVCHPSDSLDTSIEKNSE

Adenosine receptor A1 = target: T3, Adenosine receptor A1 (Homo sapiens, UniProt P30542); assay: Displacement of […] from human A1AR expressed in Flp-In-T-REx-293 cells assessed as inhibition constant; format: cell-based
T3 sequence (P30542 whole entry): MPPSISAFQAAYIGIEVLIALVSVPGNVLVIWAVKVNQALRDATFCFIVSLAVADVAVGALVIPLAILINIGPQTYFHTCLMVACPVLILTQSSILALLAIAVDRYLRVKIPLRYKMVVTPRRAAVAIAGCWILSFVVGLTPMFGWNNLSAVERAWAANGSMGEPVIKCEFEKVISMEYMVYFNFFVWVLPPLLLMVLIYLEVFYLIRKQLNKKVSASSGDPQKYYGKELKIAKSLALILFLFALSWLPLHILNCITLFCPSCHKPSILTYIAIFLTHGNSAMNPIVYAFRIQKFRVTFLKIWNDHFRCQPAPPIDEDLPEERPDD

[3] = target: T4, Alpha-2C adrenergic receptor (Homo sapiens, UniProt P18825); assay: Binding affinity to alpha2C receptor (unknown origin) assessed as inhibition constant
T4 sequence (P18825 whole entry): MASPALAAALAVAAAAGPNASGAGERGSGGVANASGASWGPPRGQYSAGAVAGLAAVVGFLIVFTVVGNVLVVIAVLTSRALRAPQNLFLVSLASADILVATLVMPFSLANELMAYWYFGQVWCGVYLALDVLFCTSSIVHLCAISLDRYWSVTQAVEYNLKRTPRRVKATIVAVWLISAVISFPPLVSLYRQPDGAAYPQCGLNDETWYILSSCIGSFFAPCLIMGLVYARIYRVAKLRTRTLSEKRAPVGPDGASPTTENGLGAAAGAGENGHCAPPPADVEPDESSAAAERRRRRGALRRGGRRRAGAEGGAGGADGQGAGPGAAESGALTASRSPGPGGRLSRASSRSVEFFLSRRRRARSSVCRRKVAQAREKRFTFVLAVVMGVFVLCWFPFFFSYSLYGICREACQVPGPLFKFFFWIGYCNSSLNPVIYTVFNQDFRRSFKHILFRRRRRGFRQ

Mu-type opioid receptor = Mu-type opioid receptor (Homo sapiens, UniProt P35372); assay: Binding affinity to MOR (unknown origin) assessed as inhibition constant
Mu-type opioid receptor, sequence (P35372 whole entry): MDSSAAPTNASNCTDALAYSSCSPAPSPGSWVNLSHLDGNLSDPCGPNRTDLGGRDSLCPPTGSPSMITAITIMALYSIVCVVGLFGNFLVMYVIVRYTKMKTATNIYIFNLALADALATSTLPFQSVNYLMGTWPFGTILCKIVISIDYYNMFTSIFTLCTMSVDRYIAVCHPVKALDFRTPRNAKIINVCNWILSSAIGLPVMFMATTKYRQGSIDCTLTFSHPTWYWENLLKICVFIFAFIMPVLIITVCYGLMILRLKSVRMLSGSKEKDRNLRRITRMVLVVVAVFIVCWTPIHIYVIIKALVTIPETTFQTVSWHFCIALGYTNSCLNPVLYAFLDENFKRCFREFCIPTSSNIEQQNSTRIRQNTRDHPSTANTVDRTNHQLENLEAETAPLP

[4] = target: Adenosine receptor A2a (Homo sapiens) (UniProt P29274); assay: Displacement of […] from human A2AR expressed in HEK cells at 10 uM relative to control; format: cell-based
Adenosine receptor A2a (Homo sapiens), sequence (P29274 whole entry): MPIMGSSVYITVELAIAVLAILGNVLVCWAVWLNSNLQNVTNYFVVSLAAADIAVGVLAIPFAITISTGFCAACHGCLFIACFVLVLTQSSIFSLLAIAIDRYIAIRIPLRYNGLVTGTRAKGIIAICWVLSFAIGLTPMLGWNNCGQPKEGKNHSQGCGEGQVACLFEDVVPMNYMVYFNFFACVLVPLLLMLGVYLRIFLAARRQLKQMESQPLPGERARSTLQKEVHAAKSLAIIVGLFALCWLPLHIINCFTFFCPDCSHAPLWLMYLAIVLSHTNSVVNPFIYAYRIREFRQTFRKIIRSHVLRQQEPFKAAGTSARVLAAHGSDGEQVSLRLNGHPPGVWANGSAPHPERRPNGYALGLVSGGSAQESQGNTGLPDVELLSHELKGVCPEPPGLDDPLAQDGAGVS

[5] = target: T5, 5-hydroxytryptamine receptor 2B (Homo sapiens, UniProt P41595); assay: Binding affinity to 5HT2B receptor (unknown origin) assessed as inhibition constant
T5 sequence (P41595 whole entry): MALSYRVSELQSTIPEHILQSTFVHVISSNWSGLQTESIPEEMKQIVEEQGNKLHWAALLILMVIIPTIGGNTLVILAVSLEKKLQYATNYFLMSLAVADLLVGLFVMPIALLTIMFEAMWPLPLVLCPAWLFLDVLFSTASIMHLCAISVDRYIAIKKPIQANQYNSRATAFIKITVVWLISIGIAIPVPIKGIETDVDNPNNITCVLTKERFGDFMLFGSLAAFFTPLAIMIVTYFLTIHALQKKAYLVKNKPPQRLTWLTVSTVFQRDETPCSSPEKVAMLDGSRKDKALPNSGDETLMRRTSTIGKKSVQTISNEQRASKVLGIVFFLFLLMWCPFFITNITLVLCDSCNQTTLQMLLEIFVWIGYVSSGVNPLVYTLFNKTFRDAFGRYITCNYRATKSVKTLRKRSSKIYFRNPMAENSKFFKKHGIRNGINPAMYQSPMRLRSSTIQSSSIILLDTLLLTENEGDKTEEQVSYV

[6] = target: T1, 5-hydroxytryptamine receptor 2A; assay: Binding affinity to 5HT2A receptor (unknown origin) at 10 uM relative to control
[7] = target: T6, 5-hydroxytryptamine receptor 2C (Homo sapiens, UniProt P28335); assay: Binding affinity to 5HT2C receptor (unknown origin) assessed as inhibition constant
T6 sequence (P28335 whole entry): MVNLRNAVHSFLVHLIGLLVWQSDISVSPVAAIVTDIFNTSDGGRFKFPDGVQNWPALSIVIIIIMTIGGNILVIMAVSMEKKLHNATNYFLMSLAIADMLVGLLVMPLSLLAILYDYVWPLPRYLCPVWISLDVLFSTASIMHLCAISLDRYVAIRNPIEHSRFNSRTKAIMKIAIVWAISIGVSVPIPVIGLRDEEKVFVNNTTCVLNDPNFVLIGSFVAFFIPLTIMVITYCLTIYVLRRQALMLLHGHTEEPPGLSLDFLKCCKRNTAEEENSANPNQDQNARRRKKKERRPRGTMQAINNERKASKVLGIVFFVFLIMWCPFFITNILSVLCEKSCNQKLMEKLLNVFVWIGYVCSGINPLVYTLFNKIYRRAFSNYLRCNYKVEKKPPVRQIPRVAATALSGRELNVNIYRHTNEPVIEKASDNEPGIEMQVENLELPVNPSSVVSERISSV

[8] = target: T7, 5-hydroxytryptamine receptor 2C (Homo sapiens) (UniProt P28335); assay: Displacement of [3H]-Mesulergine from human 5-HT2C expressed in Flp-In-T-REx-293 cells at 10 uM incubated for 1 hr relative to control; format: cell-based
T7 sequence (whole entry): T6 sequence (P28335 whole entry)

[9] = target: T1, 5-hydroxytryptamine receptor 2A; assay: Displacement of [3H]ketanserin from human 5-HT2A receptor expressed in HEK293 cells at 10 uM incubated for 1 hr relative to control; format: cell-based
[10] = target: T5, 5-hydroxytryptamine receptor 2B; assay: Displacement of [3H]-LSD from human 5-HT2B receptor expressed in HEK cells assessed as inhibition constant incubated for 1 hr; format: cell-based
[11] = target: T8, Adenosine receptor A3 (Homo sapiens) (UniProt P0DMS8); assay: Displacement of […] from human A3AR expressed in HEK cells at 10 uM relative to control; format: cell-based
T8 sequence (whole entry): T2 sequence (P0DMS8 whole entry)

[12] = target: T7, 5-hydroxytryptamine receptor 2C (Homo sapiens); assay: Binding affinity to 5HT2C receptor (unknown origin) at 10 uM relative to control
[13] = target: T6, 5-hydroxytryptamine receptor 2C; assay: Displacement of [3H]-Mesulergine from human 5-HT2C expressed in Flp-In-T-REx-293 cells assessed as inhibition constant incubated for 1 hr; format: cell-based; details: read-out: Ki
[14] = target: T9, Alpha-2B adrenergic receptor (Homo sapiens, UniProt P18089); assay: Binding affinity to alpha2B receptor (unknown origin) assessed as inhibition constant
T9 sequence (P18089 whole entry): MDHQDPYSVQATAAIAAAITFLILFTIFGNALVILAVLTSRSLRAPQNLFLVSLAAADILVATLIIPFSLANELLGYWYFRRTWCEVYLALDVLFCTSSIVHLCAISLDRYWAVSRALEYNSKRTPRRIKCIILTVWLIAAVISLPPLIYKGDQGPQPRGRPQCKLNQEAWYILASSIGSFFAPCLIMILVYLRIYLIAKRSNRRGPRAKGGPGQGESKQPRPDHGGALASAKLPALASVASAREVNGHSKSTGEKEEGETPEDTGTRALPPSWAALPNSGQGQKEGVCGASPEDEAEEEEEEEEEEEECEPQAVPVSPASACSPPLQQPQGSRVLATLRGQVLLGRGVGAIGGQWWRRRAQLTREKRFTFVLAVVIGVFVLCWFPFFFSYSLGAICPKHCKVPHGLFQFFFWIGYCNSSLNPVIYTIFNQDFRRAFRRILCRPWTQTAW

[15] = target: Beta-3 adrenergic receptor (Homo sapiens, UniProt P13945); assay: Binding affinity to beta3 adrenergic receptor (unknown origin) assessed as inhibition constant
Beta-3 adrenergic receptor, sequence (P13945 whole entry): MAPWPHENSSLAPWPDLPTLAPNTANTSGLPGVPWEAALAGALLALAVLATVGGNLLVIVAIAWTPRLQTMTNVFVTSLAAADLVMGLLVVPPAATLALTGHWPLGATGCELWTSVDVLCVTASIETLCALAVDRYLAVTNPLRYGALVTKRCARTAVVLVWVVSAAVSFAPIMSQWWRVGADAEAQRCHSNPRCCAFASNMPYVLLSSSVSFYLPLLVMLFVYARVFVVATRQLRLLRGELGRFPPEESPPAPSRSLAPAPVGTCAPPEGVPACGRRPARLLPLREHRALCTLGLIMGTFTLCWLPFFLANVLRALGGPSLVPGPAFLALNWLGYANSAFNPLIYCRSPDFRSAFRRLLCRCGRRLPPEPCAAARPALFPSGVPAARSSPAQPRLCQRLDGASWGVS

[16] = target: Sodium-dependent dopamine transporter (Homo sapiens, UniProt Q01959); assay: Binding affinity to DAT (unknown origin) assessed as inhibition constant
Sodium-dependent dopamine transporter, sequence (Q01959 whole entry): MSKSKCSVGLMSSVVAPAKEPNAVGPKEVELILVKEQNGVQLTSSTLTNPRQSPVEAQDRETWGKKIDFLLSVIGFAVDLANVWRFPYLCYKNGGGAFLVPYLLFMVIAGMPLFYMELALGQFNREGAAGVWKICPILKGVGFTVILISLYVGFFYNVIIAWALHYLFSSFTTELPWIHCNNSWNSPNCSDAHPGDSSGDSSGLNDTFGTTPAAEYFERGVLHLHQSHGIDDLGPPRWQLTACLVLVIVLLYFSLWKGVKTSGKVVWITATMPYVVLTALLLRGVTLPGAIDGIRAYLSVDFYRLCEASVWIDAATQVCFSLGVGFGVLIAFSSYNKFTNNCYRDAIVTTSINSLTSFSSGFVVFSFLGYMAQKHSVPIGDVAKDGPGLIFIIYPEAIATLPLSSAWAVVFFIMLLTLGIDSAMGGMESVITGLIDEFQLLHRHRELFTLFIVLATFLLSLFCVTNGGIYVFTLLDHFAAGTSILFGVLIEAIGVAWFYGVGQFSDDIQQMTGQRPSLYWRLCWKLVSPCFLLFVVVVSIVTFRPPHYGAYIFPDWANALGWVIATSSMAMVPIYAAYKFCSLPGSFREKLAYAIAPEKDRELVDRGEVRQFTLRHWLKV

T1 sequence (P28223 whole entry): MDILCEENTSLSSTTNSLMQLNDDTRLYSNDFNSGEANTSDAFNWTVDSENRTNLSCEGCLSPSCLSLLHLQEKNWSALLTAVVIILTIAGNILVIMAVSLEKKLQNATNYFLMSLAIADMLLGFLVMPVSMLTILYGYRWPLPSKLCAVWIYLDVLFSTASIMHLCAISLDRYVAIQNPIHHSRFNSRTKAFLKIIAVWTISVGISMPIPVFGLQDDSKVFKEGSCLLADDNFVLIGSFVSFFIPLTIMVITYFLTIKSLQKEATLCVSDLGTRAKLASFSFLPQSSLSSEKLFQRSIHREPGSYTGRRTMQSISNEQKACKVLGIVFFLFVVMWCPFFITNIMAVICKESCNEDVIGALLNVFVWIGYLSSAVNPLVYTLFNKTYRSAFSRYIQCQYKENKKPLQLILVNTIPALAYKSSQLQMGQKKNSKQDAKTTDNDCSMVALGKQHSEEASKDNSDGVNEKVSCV
5-hydroxytryptamine receptor 1D, sequence (P28221 whole entry): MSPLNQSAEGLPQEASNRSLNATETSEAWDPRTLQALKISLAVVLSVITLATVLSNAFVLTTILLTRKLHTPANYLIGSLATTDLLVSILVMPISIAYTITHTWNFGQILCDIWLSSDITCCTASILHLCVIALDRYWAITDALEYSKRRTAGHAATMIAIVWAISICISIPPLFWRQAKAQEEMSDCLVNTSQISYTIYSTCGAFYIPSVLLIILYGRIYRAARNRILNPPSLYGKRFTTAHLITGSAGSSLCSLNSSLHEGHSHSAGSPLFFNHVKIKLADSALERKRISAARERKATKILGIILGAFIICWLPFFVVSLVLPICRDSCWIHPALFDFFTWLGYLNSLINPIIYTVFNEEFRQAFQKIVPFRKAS

| Ki [5] | Activity [6] | Ki [7] | SMILES | Ki (Adenosine receptor A3) | Activity [4] | Activity [9] | Ki [13] | other results |
| --- | --- | --- | --- | --- | --- | --- | --- | --- |
|  |  |  | O[C@H]1[C@H](n2cnc3c(NC(C4CCCC4)C4CCCC4)nc(Cl)nc32)[C@H]2C[C@@]2(CCl)[C@H]1O | 8.26 µM | 36% |  |  | Ki [1]: 6.5 µM; Ki [2]: 6.47 µM; Ki (Adenosine receptor A1): 0.529 µM; Ki [3]: 2.5 µM; Ki (Mu-type opioid receptor): 5.7 µM |
| 1.09 µM | 11% | 1.23 µM | O[C@H]1[C@H](n2cnc3c(NC(C4CCC4)C4CCC4)ncnc32)[C@H]2C[C@@]2(CCl)[C@H]1O |  |  |  |  |  |
|  | 28% | 0.908 µM | O[C@H]1[C@H](n2cnc3c(NC(C4CCC4)C4CCC4)nc(Cl)nc32)[C@H]2C[C@@]2(CCl)[C@H]1O |  |  |  |  |  |
|  |  |  | O[C@H]1[C@H](n2cnc3c(NC(C4CCCC4)C4CCCC4)nc(Cl)nc32)[C@H]2C[C@@]2(CSc2ccccc2F)[C@H]1O |  | -10% | 36% |  | Activity [8]: 37%; Ki [10]: 0.64 µM; Activity [11]: 1%; Ki (Mu-type opioid receptor): 4.9 µM |
|  |  |  | CSC[C@@]12C[C@@H]1[C@@H](n1cnc3c(NC(C4CCCC4)C4CCCC4)nc(Cl)nc31)[C@H](O)[C@@H]2O | 5.27 µM | -12% |  | 0.481 µM | Activity ([9]; filed as antagonist): 47%; Ki [14]: 1.7 µM |
| 0.186 µM | 18% | 1.02 µM | OC[C@@]12C[C@@H]1[C@@H](n1cnc3c(NC(C4CCC4)C4CCC4)ncnc31)[C@H](O)[C@@H]2O |  |  |  |  |  |
|  |  |  | COc1ccc(SC[C@@]23C[C@@H]2[C@@H](n2cnc4c(NC(C5CCCC5)C5CCCC5)nc(Cl)nc42)[C@H](O)[C@@H]3O)cc1OC |  | 19% | 25% | 0.368 µM | Ki [15]: 2.1 µM; Ki [10]: 0.256 µM; Activity ([11]; filed as agonist): 78% |
| 0.136 µM | 35% | 0.351 µM | CCOC(=O)[C@@]12C[C@@H]1[C@@H](n1cnc3c(NC(C4CCC4)C4CCC4)nc(Cl)nc31)[C@H](O)[C@@H]2O |  |  |  |  |  |
|  |  |  | O[C@H]1[C@H](n2cnc3c(NC(C4CCCC4)C4CCCC4)nc(Cl)nc32)[C@H]2C[C@@]2(CF)[C@H]1O | 7.2 µM | 21% | 36% | 0.58 µM | Ki [16]: 7.9 µM; Ki (Adenosine receptor A1): 1.62 µM |

| SMILES | Ki [5] | Activity [6] | Ki [7] | Ki (Adenosine receptor A3) | Activity [4] | Activity [9] | Ki [13] | other results |
| --- | --- | --- | --- | --- | --- | --- | --- | --- |
| O[C@@H]1[C@H](O)[C@@H]2C[C@@H]2[C@H]1n1ccc2c(NC(C3CC3)C3CC3)nc(I)nc21 | 1.3 µM | 3% |  |  |  |  |  | pKi [5]: 5.88; Activity [12]: 30% |
